Tested on: Male beagle dogs
Assay: canine telemetry protocol, blood pressure reduction efficacy
Type: in vivo
Settings: change from baseline, 3 mg/kg, oral gavage; for ΔPP (mm Hg) 1-6 h / ΔPP (mm Hg) 6-12 h / ΔPP (mm Hg) 12-18 h: pulse pressure; for ΔSBP (mm Hg) 1-6 h / ΔSBP (mm Hg) 6-12 h / ΔSBP (mm Hg) 12-18 h: systolic blood pressure
Method: Compounds of the invention were evaluated for blood pressure reduction efficacy using the following canine telemetry protocol described below.
Male beagle dogs (approximately 1-3 years old) with a body weight of between 10 and 16 kg were surgically implanted with DSI radiotelemetry devices (model: TL11M2-D70-PCT). Briefly, under an inhalant anesthesia, isoflurane/oxygen mixture (1-3.5%/to effect), the body of the telemetry device was positioned and secured intra-abdominally. Subsequently, the arterial catheter of the telemetry device was passed subcutaneously to the inguinal area and introduced into the femoral artery and advanced to the level of the descending aorta. The catheter was secured with 2-0 silk ligatures. The muscle and underlying fascia was closed over the catheter using absorbable suture and the skin was closed using non-absorbable suture. The animals were allowed a minimum recovery period of 2 weeks between surgery and the evaluation of test compounds.
Compound evaluation consisted of a 3 day paradigm at a 3 mg/kg dose. On the first day, no compounds were administered during a 24 hour period of baseline data collection. Blood pressure and heart rate data were collected continuously for one minute periods at 10 minute intervals. On the days of compound administration half the animals received test article with the other half receiving the vehicle used for compound formulation. All test materials were administered by oral gavage in a volume of 1 mL/kg. Data are expressed either as raw values (mm Hg or beats per minute) or as the change from baseline (average value for about 12 hours in low activity period prior to dosing). Change is SBP (systolic blood pressure) and PP (pulse pressure) over time is shown below: […]

For `CC(C)(C)N/[N+]([O-])=N/OC1CCN(c2ccc(C#N)cn2)CC1` [Example 22, O^2-[1-(5-cyanopyridin-2-yl)piperidin-4-yl]1-(N-tert-butylamino)diazen-1-ium-1,2-diolate], the “ΔPP (mm Hg) 1-6 h” value was −15 mm Hg, the “ΔPP (mm Hg) 6-12 h” value was −17 mm Hg and the “ΔPP (mm Hg) 12-18 h” value was −16 mm Hg. For the same compound, the “ΔSBP (mm Hg) 1-6 h” value was −19 mm Hg, the “ΔSBP (mm Hg) 6-12 h” value was −18 mm Hg and the “ΔSBP (mm Hg) 12-18 h” value was −21 mm Hg.
For `CC(C)(C)NC(=O)N1CC[C@@H](O/N=[N+](\[O-])NC(C)(C)C)C1` [Example 9, O^2-[(3R)-1-(tert-butylcarbamoyl)pyrrolidin-3-yl]1-(N-tert-butylamino)diazen-1-ium-1,2-diolate], the “ΔPP (mm Hg) 1-6 h” value was −23 mm Hg, the “ΔPP (mm Hg) 6-12 h” value was −27 mm Hg and the “ΔPP (mm Hg) 12-18 h” value was −11 mm Hg. The “ΔSBP (mm Hg) 1-6 h” value was −24 mm Hg, the “ΔSBP (mm Hg) 6-12 h” value was −25 mm Hg and the “ΔSBP (mm Hg) 12-18 h” value was −18 mm Hg.
For `Cc1cccc(N2CC[C@@H](O/N=[N+](\[O-])NC(C)(C)C)C2=O)c1` [Example 36, O^2-[(3R)-1-(3-methylphenyl)-2-oxopyrrolidin-3-yl]1-(N-tert-butylamino)diazen-1-ium-1,2-diolate], the “ΔPP (mm Hg) 1-6 h” value was −9 mm Hg, the “ΔPP (mm Hg) 6-12 h” value was −7 mm Hg and the “ΔPP (mm Hg) 12-18 h” value was −4 mm Hg. The “ΔSBP (mm Hg) 1-6 h” value was −23 mm Hg, the “ΔSBP (mm Hg) 6-12 h” value was −17 mm Hg and the “ΔSBP (mm Hg) 12-18 h” value was −14 mm Hg.
For `CC(C)(C)N/[N+]([O-])=N/O[C@@H]1CCN(c2cccc(C#N)c2)C1` [Example 32, O^2-[(3R)-1-(3-cyanophenyl)pyrrolidin-3-yl]1-(N-tert-butylamino)diazen-1-ium-1,2-diolate], the “ΔPP (mm Hg) 1-6 h” value was −7 mm Hg, the “ΔPP (mm Hg) 6-12 h” value was −12 mm Hg and the “ΔPP (mm Hg) 12-18 h” value was −13 mm Hg. For the same compound, the “ΔSBP (mm Hg) 1-6 h” value was −10 mm Hg, the “ΔSBP (mm Hg) 6-12 h” value was −17 mm Hg and the “ΔSBP (mm Hg) 12-18 h” value was −17 mm Hg.

Source: patent US8361994B2, “Primary amine diazeniumdiolate heterocyclic derivatives” (Merck Sharp & Dohme Corp, priority 2011, dated 2013)
